From US20070010671A1, “Novel quinazoline derivatives and methods of treatment related to the use thereof” (priority 2003, published 2007) come the findings set out here.

Some results are limits rather than exact numbers.

One assay deals with MCH receptor (Homo sapiens, UniProt Q99705). Briefly: High throughput functional screening FLIPR/FDSS6000: inhibition of MCH-evoked intracellular Ca2+ changes. The assay is classed as cell-based. The conditions noted are these: class by percent of control at 10^-7 M or IC50. A digest of the protocol:
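Antagonism was measured as inhibition of calcium responses to 50 nM MCH, monitored 290 s at ex 488/em 530 nm on FLIPR or FDSS6000. Beforehand, cells bearing a constitutively active MCH receptor received Fluo4-AM (4 μM, 1 h, 37 °C) with probenecid, and test compound for 3 min.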
For the compound `COc1ccc(NC(=O)NC[C@H]2CC[C@@H](Nc3nc(N(C)C)c4ccccc4n3)CC2)cc1` [compound 444, N-[(cis-4-{[4-(dimethylamino)quinazolin-2-yl]amino}cyclohexyl)methyl]-N′-(4-methoxyphenyl)urea], the class is on record as 2 (Class 2: The value of percent of control at 10^−7 M was from 40% to 60% or the value of IC50 was from 50 nM to 200 nM.).

Turning to `CN(C)c1nc(N[C@H]2CC[C@@H](CNC(=S)Nc3cccc(I)c3)CC2)nc2ccccc12` [compound 651], the class is listed as 3 (Class 3: The value of percent of control at 10^−7 M was more than 60% or the value of IC50 was more than 200 nM.).

Regarding `Cc1ccc2nc(-c3ccc(NC(=O)NC[C@H]4CC[C@@H](Nc5nc(N(C)C)c6ccccc6n5)CC4)cc3)sc2c1` [compound 771], the class is on record as 3 (Class 3: The value of percent of control at 10^−7 M was more than 60% or the value of IC50 was more than 200 nM.).

Consider `C[C@@H](NC(=S)N[C@H]1CC[C@@H](Nc2nc(N(C)C)c3ccccc3n2)CC1)c1ccccc1` [compound 329, N-(cis-4-{[4-(dimethylamino)quinazolin-2-yl]amino}cyclohexyl)-N′-[(1R)-1-phenylethyl]thiourea], for which the class is 1 (Class 1: The value of percent of control at 10^−7 M was less than 40% or the value of IC50 was less than 50 nM.).

For the compound `Cc1ccc(NC(=S)N[C@H]2CC[C@@H](Nc3nc(N(C)C)c4ccccc4n3)CC2)c(C)c1` [compound 249, N-(cis-4-{[4-(dimethylamino)quinazolin-2-yl]amino}cyclohexyl)-N′-(2,4-dimethylphenyl)thiourea], the class is on record as 1 (Class 1: The value of percent of control at 10^−7 M was less than 40% or the value of IC50 was less than 50 nM.).

`CN(C)c1nc(N[C@H]2CC[C@@H](CNC(=O)Nc3cccc4ccccc34)CC2)nc2ccccc12` [compound 450, N-[(cis-4-{[4-(dimethylamino)quinazolin-2-yl]amino}cyclohexyl)methyl]-N′-1-naphthylurea]: the class is 2 (Class 2: The value of percent of control at 10^−7 M was from 40% to 60% or the value of IC50 was from 50 nM to 200 nM.).

For the compound `CN(C)c1nc(N[C@H]2CC[C@@H](NC(=S)Nc3cccc(OCc4ccccc4)c3)CC2)nc2ccccc12` [compound 261], the class is listed as 3 (Class 3: The value of percent of control at 10^−7 M was more than 60% or the value of IC50 was more than 200 nM.).

With `Cc1cccc(NC(=O)NC[C@H]2CC[C@@H](Nc3nc(N(C)C)c4ccccc4n3)CC2)c1` [compound 459, N-[(cis-4-{[4-(dimethylamino)quinazolin-2-yl]amino}cyclohexyl)methyl]-N′-(3-methylphenyl)urea], the class is recorded as 2 (Class 2: The value of percent of control at 10^−7 M was from 40% to 60% or the value of IC50 was from 50 nM to 200 nM.).

As for `CN(C)c1nc(N[C@H]2CC[C@@H](CNC(=S)NC34CC5CC(CC(C5)C3)C4)CC2)nc2ccccc12` (relative stereo) [compound 624], the class is on record as 3 (Class 3: The value of percent of control at 10^−7 M was more than 60% or the value of IC50 was more than 200 nM.).

Staying with this assay, now noted: class by percent of control at 10^-7 M or by IC50; read-out: class.
`CN(C)c1nc(N[C@H]2CC[C@@H](NC(=O)Nc3ccccc3F)CC2)nc2ccccc12` [compound 38]: the IC50 is above 200 nM.

`CN(C)c1nc(N[C@H]2CC[C@@H](NC(=O)Nc3ccc4c(c3)CCC4)CC2)nc2ccccc12` [compound 839]: the IC50 is above 200 nM.

In the case of `Cc1onc(-c2ccccc2)c1NC(=S)NC[C@H]1CC[C@@H](Nc2nc(N(C)C)c3ccccc3n2)CC1` [compound 819], the IC50 was 50 to 200 nM.

As to `CCNC(=O)N[C@H]1CC[C@@H](Nc2nc(N(C)C)c3ccccc3n2)CC1` [compound 32], the IC50 is above 200 nM.

For the compound `CN(C)c1nc(N[C@H]2CC[C@@H](NC(=O)Nc3ccccc3Cc3ccccc3)CC2)nc2ccccc12` [compound 86], the IC50 is above 200 nM.

Still in this assay, the particulars now being: class by percent of control at 10^−7 M or by IC50; read-out: class.
Turning to `CN(C)c1nc(N[C@H]2CC[C@@H](C(=O)NCc3ccc(Cl)c(C(F)(F)F)c3)CC2)nc2ccccc12` [Example 1178, cis-N-[4-chloro-3-(trifluoromethyl)benzyl]-4-{[4-(dimethylamino)quinazolin-2-yl]amino}cyclohexanecarboxamide], the IC50 was below 50 nM.
